In US12139458B2, “(2,5-dioxopyrrolidin-1-yl)(phenyl)-acetamide derivatives and their use in the treatment of neurological diseases” (UNIWERSYTET JAGIELLONSKI, priority 2019, dated 2024):
Read-outs that look alike come from different tables or passages of the source.

Assays:
[1] = test system: voltage-dependent sodium channels in the prefrontal cortex pyramidal neurons; test: In vitro electrophysiological study of sodium currents; type: cell-based, Rats
Experimental: The experiments were carried out in accordance with institutional and international guidelines regarding the ethics of animal research. Rats (3 weeks old) were anesthetized with ethyl chloride and decapitated. The brains were then removed and placed in ice-cold extracellular fluid. The methodology of slice preparation and pre-incubation has been described earlier (Szulczyk, B.; Nurowska, E. Biochem. Biophys. Res. Commun. 2017, 491, 291-295). The sections containing the prefrontal cortex were enzymatically and mechanically dispersed. Single prefrontal cortex pyramidal neurons were visualized using an inverted microscope (Nikon). Sodium currents were induced by rectangular depolarizing stimuli. The potential between depolarizing stimuli was maintained at −65 mV. […]
The extracellular fluid washing the neurons contained (in mM): NaCl (30), choline chloride (90), TEA-Cl (30), CaCl2 (2), MgCl2 (2), glucose (15), HEPES (10), LaCl3 (0.001) and CdCl2 (0.4) (pH 7.4). Currents were recorded using an Axopatch 1D amplifier and analyzed using pClamp software (Axon Instruments and Molecular Devices, USA). […]
The patch membrane was ruptured by suction or by an electrical stimulus, and then membrane capacitance was compensated. […] The leakage current was subtracted from the recorded currents. […]

[2] = test system: male white Swiss mice (CD-1); test: Formalin test (analgesic activity); type: in vivo; details: Mus musculus, ip, i.p., mice
Experimental: The tests were carried out using male white Swiss mice (CD-1) weighing 18-25 g. All procedures were carried out in accordance with Polish and international guidelines on ethics of animal testing, after obtaining appropriate institutional approval. The study group consisted of 8-10 animals. The tested and reference substances were administered intraperitoneally 30 minutes before given test as suspension in 1% aqueous solution of Tween. All tests/models were carried out based on the procedures described in the specialist literature: the formalin test (Beirith, A.; Santos, A. R.; Calixto, J. B.; Rodrigues, A. L.; Creczynski-Pasa, T. B. Eur. J. Pharmacol. 1998, 345, 233-245), the model of capsaicin-induced pain (Mogilski, S.; Kubacka, M.; Redzicka, A.; Kazek, G.; Dudek, M.; Malinka, W.; Filipek, B. Pharmacol. Biochem. Behav. 2015, 133, 99-110), the model of oxaliplatin-induced neuropathic pain—von Frey test (Sałat, K.; Cios, A.; Wyska, E.; Satat, R.; Mogilski, S.; Filipek, B.; Wigȩkowski, K.; Malawska, B. Pharmacol. Biochem. Behav. 2014, 122, 173-181).
The pain was induced by the subplantar injection of 20 μL of 2.5% formalin solution into the mice right hind paw. The animals were placed in separate, transparent observation chambers for a period of 30 minutes. The measured value was the total licking and biting time of the paw to which the formalin solution was injected. The nociceptive reaction time was calculated for the first 5 minutes after formalin injection (first phase of the test—acute pain) and in the 15-20, 20-25 and 25-30 minutes time intervals after its administration (second phase of the test—inflammatory pain). The observed inhibition of nociceptive reaction—reduction of paw licking and biting time, was interpreted as the analgesic effect of the compound tested. Based on the results obtained, the ED50 dose was calculated (dose that reduces the nociceptive reaction time by 50%). […] Compound 6 was administered at doses of 10 mg/kg, 20 mg/kg and 30 mg/kg.

CYP2D6 = molecular target: T1, CYP2D6 (Homo sapiens, UniProt P10635); test: CYP2D6 P450-Glo luminescence test; type: in vitro ADME; details: 10 μM
T1 construct: purchased Promega (Madison, WI, USA)
T1 sequence (P10635 whole entry): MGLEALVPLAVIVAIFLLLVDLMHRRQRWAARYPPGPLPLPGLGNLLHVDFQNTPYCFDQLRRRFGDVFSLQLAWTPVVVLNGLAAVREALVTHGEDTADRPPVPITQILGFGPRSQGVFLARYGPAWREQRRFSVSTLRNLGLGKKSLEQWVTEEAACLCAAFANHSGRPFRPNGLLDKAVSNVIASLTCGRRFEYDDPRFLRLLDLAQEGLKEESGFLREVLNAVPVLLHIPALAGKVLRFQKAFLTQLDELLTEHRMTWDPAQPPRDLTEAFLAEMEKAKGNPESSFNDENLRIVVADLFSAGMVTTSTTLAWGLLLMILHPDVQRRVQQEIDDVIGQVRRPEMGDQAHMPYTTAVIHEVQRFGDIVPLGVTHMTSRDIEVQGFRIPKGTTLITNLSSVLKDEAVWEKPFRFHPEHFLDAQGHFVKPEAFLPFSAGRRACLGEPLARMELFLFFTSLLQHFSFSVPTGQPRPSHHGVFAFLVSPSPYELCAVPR
Experimental: Effect of compound 6 on cytochrome P-450 3A4 and 2D6 activity. The research was conducted using commercial luminescence tests CYP3A4 P450-Glo™ and CYP2D6 P450-Glo™ from Promega (Madison, WI, USA) based on the methodology described in the literature (Socała, K.; Mogilski, S.; Pieróg, M.; Nieoczym, D.; Abram, M.; Szulczyk, B.; Lubelska, A.; Latacz, G.; Doboszewska, U.; Wlaź, P.; Kamiński, K. ACS Chem. Neurosci. 2018, doi: 10.1021/acschemneuro.8b00476; Latacz, G.; Lubelska, A.; Jastrzȩbska-Wiȩek, M.; Partyka, A.; Sobato, A.; Olejarz, A.; Kucwaj-Brysz, K.; Satata, G.; Bojarski, A. J.; Wesołowska, A.; Kieć-Kononowicz, K.; Handzlik, J. Chem. Biol. Drug. Des. 2017, 90, 1295-1306). The CYP isoforms selected for study are responsible for the metabolism of approximately 40-50% of the drugs available on the market, and their stimulation or inhibition determines the majority of metabolic drug interactions. […] In summary, the results obtained indicate a low probability of potential metabolic interactions caused by 6.

O=C(C(c1ccccc1)N1C(=O)CCC1=O)N1CCN(c2cccc(C(F)(F)F)c2)CC1 (racemic) [Compound 6, 1-(2-Oxo-1-phenyl-2-(4-(3-(trifluoromethyl)phenyl)piperazin-1-yl)ethyl)pyrrolidine-2,5-dione]
maximum amplitude of sodium currents normalized to control (1.0) ([1]; 100 μM, in the presence of the compound, holding -65 mV): 0.59±0.08
sodium current amplitude normalized to control after washing out ([1]; after wash-out of 100 μM, n=5): 0.79±0.07
ED50 ([2]; phase I (acute pain, 0-5 min), read-out: ED50 in the first phase of the formalin test): 28.5 mg/kg
ED50 ([2]; phase II (inflammatory pain, 15-30 min), read-out: ED50 in the second phase of the formalin test): 12.4 mg/kg
effect on CYP2D6 activity (CYP2D6): very weak stimulating effect
